These are literature values, as cited in patent US20090291958A1, “Substituted PDE5 inhibitors” (Auspex Pharmaceuticals, Inc., priority 2006, published 2009).

Structures are written as SMILES.

The conditions of series [1]: in vivo.
Series [2] deals with PDE6. To be noted: share of patients; attributed to PDE6 modulation.
Series [3] deals with PDE5 versus PDE6. Particulars: compared with sildenafil and vardenafil.
The conditions of series [4]: in vivo. The source holds these as a separate data set.

Usually half-life stands for the time needed for the level to fall by half in the phase considered. As for `CN1CC(=O)N2[C@H](c3ccc4c(c3)OCO4)c3[nH]c4ccccc4c3C[C@@H]2C1=O` [tadalafil, Tadalafil], in series [1], the half-life is 17.5 h. Also, the “patients with side effects of chromatopsia, increased sensitivity to light, and blurred vision” value in series [2] is “less than 0.1%”. For the same compound, the “selectivity for PDE5 versus PDE6” value in series [3] is “much more selective than sildenafil and vardenafil”. In addition, in series [4], the exercise tolerance result is given as “improve exercise tolerance” and the “rate of myocardial infarction” value is on record as “lower rate of myocardial infarction than placebo”.
